This experiment concerns Human dermal fibroblasts from Friedreich's Ataxia patients. The experiment is described as follows: Rescue of FRDA fibroblasts stressed by BSO (Calcein AM viability). The format is cell-based. To be noted: FRDA fibroblasts GM04078, 1 mM BSO, 48 h. Here is the method: An initial screen was performed to identify compounds effective for the amelioration of redox disorders. Test samples, 4 reference compounds (idebenone, decylubiquinone, Trolox and alpha-tocopherol), and solvent controls were tested for their ability to rescue FRDA fibroblasts stressed by addition of L-buthionine-(S,R)-sulfoximine (BSO), as described in Jauslin et al., Hum. Mol. Genet. 11(24):3055 (2002), Jauslin et al., FASEB J. 17:1972-4 (2003), and International Patent Application WO 2004/003565. […] This specific BSO-mediated cell death can be prevented by administration of antioxidants or molecules involved in the antioxidant pathway, such as alpha-tocopherol, selenium, or small molecule glutathione peroxidase mimetics. However, antioxidants differ in their potency, i.e. the concentration at which they are able to rescue BSO-stressed FRDA fibroblasts.
MEM (a medium enriched in amino acids and vitamins, catalog no. 1-31F24-I) and Medium 199 (M199, catalog no. 1-21F22-I) with Earle's Balanced Salts, without phenol red, were purchased from Bioconcept. Fetal Calf Serum was obtained from PAA Laboratories. Basic fibroblast growth factor and epidermal growth factor were purchased from PeproTech. Penicillin-streptomycin-glutamine mix, L-buthionine (S,R)-sulfoximine, (+)-alpha-tocopherol, decylubiquinone, and insulin from bovine pancreas were purchased from Sigma. Trolox (6-Hydroxy-2,5,7,8-tetramethylchromane-2-carboxylic acid) was obtained from Fluka. Idebenone was obtained from Chemo Iberica. Calcein AM was purchased from Anaspec. Cell culture medium was made by combining 125 ml M199 EBS, 50 ml Fetal Calf Serum, 100 U/ml penicillin, 100 microgram/ml streptomycin, 2 mM glutamine, 10 microgram/ml insulin, 10 ng/ml EGF, and 10 ng/ml bFGF; MEM EBS was added to make the volume up to 500 ml. A 10 mM BSO solution was prepared by dissolving 444 mg BSO in 200 ml of medium (Invitrogen, Carlsbad, Ca.) with subsequent filter-sterilization. During the course of the experiments, this solution was stored at +4° C. The cells were obtained from the Coriell Cell Repositories (Camden, N.J.; repository number GM04078) and grown in 10 cm tissue culture plates. Every third day, they were split at a 1:3 ratio.
The test samples were supplied in 1.5 ml glass vials. The compounds were diluted with DMSO, ethanol or PBS to result in a 5 mM stock solution. Once dissolved, they were stored at −20° C. Reference antioxidants (idebenone, decylubiquinone, alpha-tocopherol and Trolox) were dissolved in DMSO.
Test samples were screened according to the following protocol:
A culture with FRDA fibroblasts was started from a 1 ml vial with approximately 500,000 cells stored in liquid nitrogen. Cells were propagated in 10 cm cell culture dishes by splitting every third day in a ratio of 1:3 until nine plates were available. Once confluent, fibroblasts were harvested. For 54 micro titer plates (96 well-MTP) a total of 14.3 million cells (passage eight) were re-suspended in 480 ml medium, corresponding to 100 microliters medium with 3,000 cells/well. The remaining cells were distributed in 10 cm cell culture plates (500,000 cells/plate) for propagation. The plates were incubated overnight at 37° C. in a atmosphere with 95% humidity and 5% CO2 to allow attachment of the cells to the culture plate.
10% DMSO (242.5 microliters) was added to a well of the microtiter plate. The test compounds were unfrozen, and 7.5 microliters of a 5 mM stock solution was dissolved in the well containing 242.5 microliters of 10% DMSO, resulting in a 150 micromolar master solution. Serial dilutions from the master solution were made. The period between the single dilution steps was kept as short as possible (generally less than 30 seconds). At least 4 hours after attachment into MTP, cells were then treated with the various compound dilutions.
Plates were kept overnight in the cell culture incubator. […]

Where [1] appears, read: Homo sapiens, average, compounds of the invention, read-out: Ec50 Average.

Each structure is given as a SMILES string. Like-named read-outs stand apart in the source and are kept apart here.

Take `CN(C)c1ccc2nc3ccc(=O)cc-3sc2c1` [Compound 2]: the concentration for a half-maximal effect (EC50) under setting [1] is 3 nM.

Take `O=c1ccc2nc3ccc(C(F)(F)F)cc3sc-2c1` [Compound 3]: the half-maximal effective concentration (EC50) under setting [1] was 28 nM.

For `Cc1cc(=O)c(C)c2sc3ccccc3nc1-2` [Compound 1], the EC50 under setting [1] was 3 nM.

For the compound `COC1=C(OC)C(=O)C(CCCCCCCCCCO)=C(C)C1=O` [Idebenone], the 50% effective concentration (EC50) (Homo sapiens, third of three experiments, read-out: EC50 Value 3) was 1000 nM.

On to `Cc1c(C)c2c(c(C)c1O)CCC(C)(C(=O)O)O2` (stereo not drawn) [Trolox, 6-Hydroxy-2,5,7,8-tetramethylchromane-2-carboxylic acid], for which, under “Homo sapiens, first of three experiments, read-out: EC50 Value 1”, the EC50 was 9000 nM.

For `Cc1c(C)c2c(c(C)c1O)CC[C@@](C)(CCC[C@H](C)CCC[C@H](C)CCCC(C)C)O2` [alpha-tocopherol], the EC50 is, setting by setting: (average of three values, control compounds, read-out: EC50 Average) 300 nM; (first of three experiments, read-out: EC50 Value 1) 400 nM; (second of three experiments, read-out: EC50 Value 2) 150 nM; (third of three experiments, read-out: EC50 Value 3) 350 nM.

A word on the EC50: it is the concentration that produces a half-maximal response.

Source of the values: patent publication US9868711B2, “Phenazine-3-one and phenothiazine-3-one derivatives for treatment of oxidative stress disorders” (BioElectron Technology Corporation, priority 2013, dated 2018).
